Results taken from patent publication US5688830A, “Treatment of neuropathic pain” (Syntex (U.S.A.) Inc., priority 1997, dated 1997).
Like-named read-outs stand apart in the source and are kept apart here.

Experiments:
[1] = test system: voltage-gated sodium channels ([3H]BTX binding, rat heart); experiment: [3H]BTX binding assay, rat heart membranes
Procedure: (§1) The following assays characterize the interaction of the compounds of Formula I with ligand binding sites on voltage-gated sodium channels.
(§2) Frozen tissues were obtained from Pel-Freez Biologicals (Rogers, AR). Tissues were homogenized in 10 volumes of a Tris-sucrose buffer (10 mM Tris-HCl, 250 mM sucrose, pH 7.4 at 4° C.) using 10 strokes with a glass-glass, hand-held homogenizer. The homogenates were filtered through nylon mesh and then centrifuged at 1,000×g for 15 minutes. The pellets were resuspended in a Hepes buffer (50 mM Hepes, 130 mM choline chloride, 5 mM glucose, 5.4 mM KCl, pH 7.4 at 4° C.). The resuspended pellets were centrifuged at 1,000×g for 15 minutes, resuspended in a Hepes buffer (50 mM Hepes, 130 mM choline chloride, 5 mM glucose, 5.4 mM KCl, pH 7.4 at 25° C.) and, frozen at -70° C. until used in binding assays.
(§3) Cell membranes prepared as in Example 10A above were incubated with 16 nM [^3 H]BTX in 250 μl of Hepes buffer (50 mM Hepes, 130 mM choline chloride, 5 mM glucose, 5.4 mM KCl, pH 7.4 at 25° C.). Nonspecific binding was defined in the presence of 1 mM veratridine. Unless otherwise specified, PbTx (0.1 μM) and LqTx (50 μg/ml) were included in the assays. […] Filters were rinsed with 3×1 ml of ice cold 50 mM Tris-HCl (pH 7.4 at 4° C.) and the bound radioactivity was determined by scintillation counting (Packard Top-count).

[2] = test system: voltage-gated sodium channels ([3H]BTX binding, rat dorsal root ganglion); experiment: [3H]BTX binding assay, rat dorsal root ganglion membranes
Procedure: as §1, §2, §3

[3] = test system: [3H]STX binding site on the rat brain sodium channel; experiment: [3H]STX binding assay
Procedure: as §1, §2
Membranes as prepared in Example 10A above were incubated at 37° C. for 30 minutes in 250 μl of a Hepes buffer (50 mM Hepes, 130 mM choline chloride, 5.5 mM glucose, 0.8 mM MgSO4, 5.4 mM KCl, pH 7.4 at 37° C.) containing 1 nM [^3 H]STX. Nonspecific binding was defined with 1 μM tetrodotoxin (TTX). […] The filters were rinsed with 3×1 ml ice cold H2 O and the bound radioactivity determined in a Packard 1900 liquid scintillation counter using Aquasol scintillation fluid.

[4] = test system: local anesthetic site of the sodium channel in rat brain cortex membranes; experiment: [3H]PD85639 binding assay
Procedure: as §1, §2
Membranes as prepared in Example 10A above were incubated with 3 nM [^3 H]PD 85639 in 250 μl of Hepes buffer (50 mM Hepes, 130 mM choline chloride, 5 mM glucose, 5.4 mM KCl, pH 7.4 at 25° C. with Tris base). Nonspecific binding was defined in the presence of 0.1 mM PD85639. […] Filters were rinsed with 3×1 ml of ice cold 50 mM Tris-HCl (pH 7.4 at 4° C.) and the bound radioactivity was determined by scintillation counting (Packard Top-count).

[5] = test system: rat brain type IIA sodium channel; experiment: [14C]Guanidinium ion influx assay, rat brain type IIA sodium channel in CHO cells; format: cell-based
Procedure: (§4) Chinese hamster ovary cells stably expressing the rat brain type IIA sodium channel subunit were maintained in RPMI 1640 with 10% fetal bovine serum and […] G-418. Chinese hamster lung cells stably expressing the human heart (hH1a) sodium channel subunit were maintained in DMEM with 5% fetal bovine serum and 300 μg/ml G-418. Both cells were subcultured and grown to confluence in 24-well plates 2-3 days before each experiment. After the growth medium was removed, the cells were washed with warm buffer (25 mM Hepes-Tris, 135 mM choline chloride, 5.4 mM potassium chloride, 0.98 mM magnesium sulfate, 5.5 mM glucose, and 1 mg/ml BSA, pH 7.4) and incubated in buffer on a 36° C. slide warmer for approximately 10 minutes. Various concentrations of the test compounds or standard sodium channel blockers (10 μl) and then veratridine (100 μM) were added to each well. After the cells were exposed to veratridine for 5 minutes, 5 μM of [^14 C]guanidinium was added, incubated with the radioligand, washed with 4 ml of ice-cold buffer, and dissolved in 0.1N sodium hydroxide. The radioactivity and the protein concentration of each cell lysate were determined by liquid scintillation counting and the protein assay using Pierce BCA reagent.

[6] = test system: human heart (hH1a) sodium channel; experiment: [14C]Guanidinium ion influx assay, human heart (hH1a) sodium channel in Chinese hamster lung cells; format: cell-based
Procedure: as §4

cold allodynia in rats = experiment: Cold allodynia in vivo assay (chronic constriction injury), acute studies; design: species or system rat; settings: subcutaneous; for ED50: Rattus norvegicus, sc
Procedure: This assay determines the effectiveness of compounds in relieving one of the symptoms of neuropathic pain produced by unilateral mononeuropathy, namely cold allodynia. Unilateral mononeuropathy was produced in rats using the Chronic Constriction Injury model performed essentially as described by Bennet and Xie, Pain, (1988) 33:87-107. Briefly, the rats were anesthetized with an intraperitoneal dose of pentobarbital sodium (65 mg/kg) with additional doses of anesthetic given as needed. The lateral aspect of each rat's hind limb was shaved and scrubbed with Novasan. Using aseptic technique, an incision was made on the lateral aspect of the hind limb at the mid-thigh level. The biceps femoris was bluntly dissected to expose the sciatic nerve. On the right hind limb of each rat, four loosely tied ligatures were made around the sciatic nerve approximately 1-2 millimeters apart. On the left side of each rat, an identical dissection was performed except that the sciatic nerve was not ligated. The muscle was closed with a continuous suture pattern, and the skin was closed with wound clips. Each rat was placed individually into a plexiglass chamber with a metal plate 6 cm from the bottom. This chamber was filled with ice water to a depth of 2.5 cm above the metal plate, with the temperature of the bath maintained at 0° C. throughout the experiment. A timer was started, and the rat's response latency was measured to the nearest tenth of a second. A "response" was defined as a rapid withdrawal of the right ligated hindpaw completely out of the water while the animal was stationary and not pivoting. An exaggerated limp while the animal was walking was not scored as a response. Maximum immersion time was 20 seconds with a 20 minute interval between trials. The screening criteria were 1) the average of two trials was less than or equal to 13 seconds, and 2) there was consistency across the two trial scores. Animals were screened for hypersensitivity to cold on post-surgery days 4 through 10, and selected for inclusion in dose-response studies based on the criteria described above. The pre-dose screening values were used as the animal's baseline cold allodynia scores. For acute studies, the animals received either subcutaneous or oral injections and were tested for cold allodynia at 1, 3, and sometimes 5 hours post-dose. The selection of doses was similar to that of Example 12C.

neuropathic pain models = experiment: Neuropathic pain models / standard assays (summary statements); format: in vivo; settings: vs methylamine and propylamine analogues and isomers thereof
[7] = cold allodynia, acute, 1 hr, read-out: ED50 1 hr
[8] = cold allodynia, acute, in words

`CCNC(C)COc1c(C)cccc1C` (racemic) [Formula I racemate, [2-(2,6-dimethylphenoxy)-1-methylethyl]-ethylamine] was tested, and the “inhibition of [3H]BTX binding” value [1] was “inhibited”, the “inhibition of [3H]BTX binding” value [2] was “inhibited” and the “affinity for the [3H]STX binding site” value [3] was “no detectable affinity”. For the same compound, the “inhibition of [3H]PD85639 binding to the local anesthetic site” value [4] was “inhibited”, the “inhibition of veratridine-stimulated [14C]Guanidinium ion influx” value [5] was “inhibited” and the “inhibition of veratridine-stimulated [14C]Guanidinium ion influx” value [6] was “inhibited”. The ED50 (cold allodynia in rats; [7]) was 15.7 mg/kg, the “Emax 1 hr” value (cold allodynia in rats; cold allodynia, acute, 1 hr) was 82% and the “anti-allodynic effect, acute dosing” value (cold allodynia in rats; 5 mg/kg, 1, 3 or 5 hours post-dose) was “no significant anti-allodynic effects”. For the same compound, the “activity in standard assays compared with close analogues” value (neuropathic pain models) was “unexpectedly more active”.
With `CCN[C@H](C)COc1c(C)cccc1C` [Formula I (R)-, (R)-[2-(2,6-dimethylphenoxy)-1-methylethyl]-ethylamine] the ED50 (cold allodynia in rats; [7]) was 37 mg/kg, the ED50 (cold allodynia in rats; cold allodynia, acute, 3 hr, read-out: ED50 3 hr) was 23.4 mg/kg and the “Emax 1 hr” value (cold allodynia in rats; cold allodynia, acute, 1 hr) was 91%. For the same compound, the “Emax 3 hr” value (cold allodynia in rats; cold allodynia, acute, 3 hr) was 87%, the “duration of action in vivo compared with racemate, (S)-enantiomer, or II” value (cold allodynia in rats; [8]) was “longer duration of action” and the “maximal analgesic activity (Emax) compared with III or IV” value (cold allodynia in rats; [8]) was “significantly greater maximal analgesic activity”. The “maximal analgesic activity compared with racemate, (S)-enantiomer, or II” value (cold allodynia in rats; [8]) was “greater maximal analgesic activity” and the “potency (ED50) comparison of (R)-isomers” value (cold allodynia in rats; [8]) was “comparable potency”.
